Data as given in US10744188B2, “High osteocalcin microcrystalline hydroxyapatite for calcium supplement” (Waitaki Biosciences, priority 2013, dated 2020).
Entries after “also recorded” stand apart in the source; their conditions may differ. Structures can show the parent of a compound that is named as a salt.

Key:
[1] = 90 day study of bone calcium level and markers of bone mineralization and turnover; type: in vivo; conditions: 90 day experimental duration
[2] = blood ionized calcium concentration after ingestion of calcium supplement (clinical tests, FIG. 1)
From the text: For some time microcrystalline hydroxyapatite (MCHA) manufactured from animal bones has been used as a slightly unconventional calcium supplement. Considering that bone mineral is largely calcium phosphate in the form of hydroxyapatite, it seems logical to use MCHA as a source of bone calcium. However, there can be some difficulty in purifying MCHA from native bones because there is considerable excess protein and lipid that must be removed to provide a stable as well as readily digestible product. As might be imagined there is considerable variation in the process parameters for making an MCHA product. In a study intended to compare MCHA to conventional calcium supplements, the inventors analyzed MCHA produced using varied protocols. They were surprised to discover that depending on how the MCHA is manufactured, its rate of bioabsorption changes quite dramatically. After considerable experimentation, the inventors developed the current product which was then compared to calcium carbonate and calcium citrate in both an absorption (measured by blood calcium concentration) and a bone mineralization/density study.
However, it must be kept in mind that the blood calcium concentration is maintained by withdrawing calcium from the bones if the dietary supply is insufficient.
In FIG. 1 the blood levels of ionized calcium of two different MHCA preparations (see below for preparation details) are compared to blood calcium levels provided by other calcium supplements.

Molecule	bone calcium level and other markers of bone mineralization and turnover, compared with calcium-free placebo [1]	bone calcium level and other markers of bone mineralization and turnover, supplements compared with each other [1]	duration of spiking of blood calcium concentration ([2]; after ingestion)	blood ionized calcium level after ingestion ([2]; compared with calcium-free placebo/control)	blood ionized calcium level after ingestion ([2]; human, in vivo)	duration of spiking of blood calcium concentration ([2]; human, in vivo)	blood ionized calcium level after ingestion ([2]; in vivo)
O=C([O-])[O-].[Ca+2] [calcium carbonate]	statistically significantly different from the calcium-free placebo	not statistically significantly different from each other	ca. 8 hour	spike above the normal 1 mM concentration; also recorded: rapid increase in ionized blood calcium	–	–	–
O=C(O)CC(O)(CC(=O)O)C(=O)O [calcium citrate]	statistically significantly different from the calcium-free placebo	not statistically significantly different from each other	–	–	spike above the normal 1 mM concentration	ca. 8 hour	rapid increase in ionized blood calcium
microcrystalline hydroxyapatite [MCHA]	–	–	–	–	–	–	not statistically significantly different from the calcium-free placebo
